Converted amounts (≈) assume the structure as drawn. Numbered stars: 1 amine (or outer) side, 2 acyl side, 3 side chain; on linkers, the order of the positions; unused ones are H or OH. Square brackets hold non-standard residues; d marks the D form. Peptide text beside a SMILES is read from it. * marks the point of attachment. N(1S-cyclohexylethyl)Gly = C[C@H](NCC(=O)O)C1CCCCC1; N(3-imidazol-1-ylpropyl)Gly = O=C(O)CNCCCn1ccnc1; Gly(Nα-4-Cl-benzyl) = O=C(O)CNCc1ccc(Cl)cc1; N(4-Br-benzyl)Gly = O=C(O)CNCc1ccc(Br)cc1; N(2-thienylmethyl)Gly = O=C(O)CNCc1cccs1; N(tridecyl)Gly = CCCCCCCCCCCCCNCC(=O)O; N(4-F-Bzl)Gly = O=C(O)CNCc1ccc(F)cc1; X1 = CC(c1ccccc1)N(CC(=O)[*:2])[*:1]; Gly(N-2-aminoethyl) = NCCNCC(=O)O; Myristoyl = CCCCCCCCCCCCCC(=O)*; NFurfurylGly = O=C(O)CNCc1ccco1; Gly(N(CH2)3NH2) = NCCCNCC(=O)O; Gly(N-cHex) = O=C(O)CNC1CCCCC1; Nphe = O=C(O)CNCc1ccccc1; NPrGly = CCCNCC(=O)O; Nlys = NCCCCNCC(=O)O; Sar = CNCC(=O)O
Assays:
C. albicans = type: cell-based, Candida albicans; details: 24 h
Excerpt: (§1) This screening led to the discovery of RMG9-11 (FIG. 2C). The minimum inhibitory concentration (MIC) of resynthesized RMG9-11 was initially determined against C. albicans, C. neoformans, and the ESKAPE bacteria via CSLI guidelines (CLSI. Methods for Dilution Antimicrobial Susceptibility Tests for Bacteria That Grow Aerobically, 11th Edition. Clinical and Laboratory Standards Institute (2018); CLSI. Reference method for broth dilution antifungal susceptibility testing of yeasts; approved standard-third edition; CLSI document M27-A3. Clinical and Laboratory Standards Institute (2008)). […] C. albicans clinical isolates include a reference strain (M1), fluconazole susceptible strains (M4 and M6), and fluconazole resistant strains (M2, M3, M5, and M7). ATCC 64124 is multidrug resistant C. albicans strain that is resistant to amphotericin B, fluconazole, caspofungin, and flucytosine. All MICs were performed under CSLI guidelines in triplicate on at least three different days.
(§2) The minimum inhibitory concentration (MIC) of peptoids against fungal pathogens C. albicans and C. neoformans was determined following CLSI guidelines (Reference method for broth dilution antifungal susceptibility testing of yeasts; approved standard-third edition; CLSI document M27-A3.” CLSI. 2008.). Colonies were transferred from a streaked YPD plate to 0.85% saline to reach an OD530 between 0.18 and 0.25. This inoculant was diluted 1:100 into RPMI-MOPS and then further diluted 1:20 into RPMI-MOPS. 198 μL of inoculant was seeded into each well of a 96 well black-walled plate. 2-fold serial dilutions of 100× peptoid solutions were prepared in water and 2 μL of peptoid were added to each well in triplicate. […] MIC was defined as the lowest concentration of compound preventing fungal growth. This assay was repeated 3 times on separate days with each compound.

in vitro = type: cell-based; details: human, HepG2 hepatocellular carcinoma cells
Protocol: The mammalian cell lines that were tested (HepG2, 3T3, and HaCat) were incubated with RMG9-11 for 72 hours and cell viability was determined via mitochondrial activity using an MTT reduction assay where viable cells reduce MTT to formazan. Toxicity is reported as the concentration of the peptoid that results in a 50% reduction in viable cells, termed toxicity dose 50% or TD50. […] SR is defined as the TD50 divided by MIC and provides a measure of the therapeutic window for a compound. Typically for most lead compounds that would continue through development and optimization, a SR of 10 is preferred while an SR of 100 is more desirable for a compound moving into preclinical animal model evaluation.
Hepatocellular carcinoma (HepG2), mouse fibroblast (3T3), and human keratinocyte (HaCat) cells were cultured in Dulbeco modified eagle media (DMEM) containing 10% fetal bovine serum (FBS) and 1% penicillin, streptomycin, and glutamine (PSG) at 37° C. and 5% CO2. Cells were collected and adjusted to […] to 4×10^5 cells/mL in phenol-red free DMEM and plated (100 μL) 96 well plates. 2-fold serial dilutions of 10× peptoid (11.1 μL) were added to each well in triplicate. Water (vehicle) was used as a negative control. Plates were incubated at 37° C. in 5% CO2 for 72 hours. Thiazolyl blue tetrazolium bromide (MTT) was added to each well (5 mg/mL; 20 μL) and incubated for 3 hours. Media was removed, DMSO (100 μL) was added, and plates were incubated at 37° C. for 10 minutes. Plates were read on a SPECTRAMAX M5 plate reader (Abs. 570 nm). The concentration of compound resulting in a 50% reduction in growth compared to control (toxicity dose 50%; TD50) was determined using GRAFIT. This procedure was repeated three times on separate days.

C. neoformans = type: cell-based, Cryptococcus neoformans; details: 72 h
Excerpt: as §1, §2

MIC C. albicans (C. albicans)	MIC C. neoformans (C. neoformans)	SMILES	CC50 at 72 h (in vitro)
25 µg/mL (≈ 22.9 µM)	6.25 to 12.5 µg/mL	CCCCCCCCCCCCCC(=O)NCC(=O)N(CCC)CC(=O)N(CC(=O)N(CCCCN)CC(=O)N(CC(=O)N(CCCn1ccnc1)CC(=O)N(CCCN)CC(N)=O)Cc1ccco1)C(C)c1ccccc1 (stereo not shown) [Compound 911-M14] (Myristoyl-G[NPrGly][X1][Nlys][NFurfurylGly][N(3-imidazol-1-ylpropyl)Gly][Gly(N(CH2)3NH2)]-NH2)	> 200 µg/mL
>100 µg/mL		CCCN(CC(=O)N(CC(=O)N(CCCCN)CC(=O)N(CC(=O)N(CC(=O)N(CCCN)CC(N)=O)Cc1ccccc1)Cc1ccco1)C(C)c1ccccc1)C(=O)CNC (stereo not shown) [SAR 1] (H-[Sar][NPrGly][X1][Nlys][NFurfurylGly][Nphe][Gly(N(CH2)3NH2)]-NH2)	> 200 µg/mL
12.5 µg/mL (≈ 12.3 µM)		CCCCCCCCCCCCCNCC(=O)N(C)CC(=O)N(CC(=O)N(CCCCN)CC(=O)N(CC(=O)N(CC(=O)N(CCCN)CC(N)=O)Cc1ccccc1)Cc1ccco1)C(C)c1ccccc1 (stereo not shown) [SAR 2] (H-[N(tridecyl)Gly][Sar][X1][Nlys][NFurfurylGly][Nphe][Gly(N(CH2)3NH2)]-NH2)	83.9 ± 5.7 µg/mL (≈ 82.6 µM)
50 µg/mL (≈ 52.5 µM)		CCCCCCCCCCCCCNCC(=O)N(CCC)CC(=O)N(C)CC(=O)N(CCCCN)CC(=O)N(CC(=O)N(CC(=O)N(CCCN)CC(N)=O)Cc1ccccc1)Cc1ccco1 [SAR 3] (H-[N(tridecyl)Gly][NPrGly][Sar][Nlys][NFurfurylGly][Nphe][Gly(N(CH2)3NH2)]-NH2)	194 ± 7.5 µg/mL (≈ 204 µM)
6.25 µg/mL (≈ 6.34 µM)		CCCCCCCCCCCCCNCC(=O)N(CCC)CC(=O)N(CC(=O)N(C)CC(=O)N(CC(=O)N(CC(=O)N(CCCN)CC(N)=O)Cc1ccccc1)Cc1ccco1)C(C)c1ccccc1 (stereo not shown) [SAR 4] (H-[N(tridecyl)Gly][NPrGly][X1][Sar][NFurfurylGly][Nphe][Gly(N(CH2)3NH2)]-NH2)	61.8 ± 16.1 µg/mL (≈ 62.7 µM)
12.5 to 25 µg/mL		CCCCCCCCCCCCCNCC(=O)N(CCC)CC(=O)N(CC(=O)N(CCCCN)CC(=O)N(C)CC(=O)N(CC(=O)N(CCCN)CC(N)=O)Cc1ccccc1)C(C)c1ccccc1 (stereo not shown) [SAR 5] (H-[N(tridecyl)Gly][NPrGly][X1][Nlys][Sar][Nphe][Gly(N(CH2)3NH2)]-NH2)	157 ± 10.1 µg/mL (≈ 160 µM)
25 µg/mL (≈ 25.8 µM)		CCCCCCCCCCCCCNCC(=O)N(CCC)CC(=O)N(CC(=O)N(CCCCN)CC(=O)N(CC(=O)N(C)CC(=O)N(CCCN)CC(N)=O)Cc1ccco1)C(C)c1ccccc1 (stereo not shown) [SAR 6] (H-[N(tridecyl)Gly][NPrGly][X1][Nlys][NFurfurylGly][Sar][Gly(N(CH2)3NH2)]-NH2)	156 ± 4.7 µg/mL (≈ 161 µM)
6.25 µg/mL (≈ 6.25 µM)		CCCCCCCCCCCCCNCC(=O)N(CCC)CC(=O)N(CC(=O)N(CCCCN)CC(=O)N(CC(=O)N(CC(=O)N(C)CC(N)=O)Cc1ccccc1)Cc1ccco1)C(C)c1ccccc1 (stereo not shown) [SAR 7] (H-[N(tridecyl)Gly][NPrGly][X1][Nlys][NFurfurylGly][Nphe][Sar]-NH2)	57.7 ± 11 µg/mL (≈ 57.7 µM)

More lines, now with the values behind:

SMILES	MIC C. albicans (C. albicans)	MIC C. neoformans (C. neoformans)	CC50 at 72 h (in vitro)
CCCCCCCCCCCCCNCC(=O)N(CCC)CC(=O)N(CC(=O)N(CCCCN)CC(=O)N(CC(=O)N(CC(=O)N(CCCN)CC(N)=O)Cc1ccccc1)Cc1ccco1)Cc1ccccc1 [Compound 911-M3] (H-[N(tridecyl)Gly][NPrGly][Nphe][Nlys][NFurfurylGly][Nphe][Gly(N(CH2)3NH2)]-NH2)	6.25 µg/mL (≈ 6.07 µM)	1.56 µg/mL (≈ 1.52 µM)	87.5 ± 10.8 µg/mL (≈ 85 µM)
CCCCCCCCCCCCCNCC(=O)N(CCC)CC(=O)N(CC(=O)N(CCCCN)CC(=O)N(CC(=O)N(CC(=O)N(CCCN)CC(N)=O)Cc1ccccc1)Cc1ccco1)Cc1ccc(F)cc1 [Compound 911-M4] (H-[N(tridecyl)Gly][NPrGly][N(4-F-Bzl)Gly][Nlys][NFurfurylGly][Nphe][Gly(N(CH2)3NH2)]-NH2)	6.25 µg/mL (≈ 5.97 µM)	1.56 µg/mL (≈ 1.49 µM)	120 ± 36.9 µg/mL (≈ 114 µM)
CCCCCCCCCCCCCNCC(=O)N(CCC)CC(=O)N(CC(=O)N(CCCCN)CC(=O)N(CC(=O)N(CC(=O)N(CCCN)CC(N)=O)Cc1ccccc1)Cc1ccco1)Cc1ccc(Cl)cc1 [Compound 911-M5] (H-[N(tridecyl)Gly][NPrGly][Gly(Nα-4-Cl-benzyl)][Nlys][NFurfurylGly][Nphe][Gly(N(CH2)3NH2)]-NH2)	6.25 to 12.5 µg/mL	1.56 µg/mL (≈ 1.47 µM)	114 ± 32.5 µg/mL (≈ 108 µM)
CCCCCCCCCCCCCNCC(=O)N(CCC)CC(=O)N(CC(=O)N(CCCCN)CC(=O)N(CC(=O)N(CC(=O)N(CCCN)CC(N)=O)Cc1ccccc1)Cc1ccco1)Cc1ccc(Br)cc1 [Compound 911-M6] (H-[N(tridecyl)Gly][NPrGly][N(4-Br-benzyl)Gly][Nlys][NFurfurylGly][Nphe][Gly(N(CH2)3NH2)]-NH2)	6.25 µg/mL (≈ 5.64 µM)	1.56 to 3.13 µg/mL	108 ± 13.6 µg/mL (≈ 97 µM)
CCCCCCCCCCCCCNCC(=O)N(CCC)CC(=O)N(CC(=O)N(CCCCN)CC(=O)N(CC(=O)N(CC(=O)N(CCCN)CC(N)=O)Cc1ccccc1)Cc1ccco1)Cc1ccco1 [Compound 911-M7] (H-[N(tridecyl)Gly][NPrGly][NFurfurylGly][Nlys][NFurfurylGly][Nphe][Gly(N(CH2)3NH2)]-NH2)	12.5 µg/mL (≈ 12.3 µM)	3.13 µg/mL (≈ 3.07 µM)	187 ± 21.5 µg/mL (≈ 183 µM)
CCCCCCCCCCCCCNCC(=O)N(CCC)CC(=O)N(CC(=O)N(CCCCN)CC(=O)N(CC(=O)N(CC(=O)N(CCCN)CC(N)=O)Cc1ccccc1)Cc1ccco1)Cc1cccs1 [Compound 911-M8] (H-[N(tridecyl)Gly][NPrGly][N(2-thienylmethyl)Gly][Nlys][NFurfurylGly][Nphe][Gly(N(CH2)3NH2)]-NH2)	6.25 µg/mL (≈ 6.04 µM)		108 ± 34.6 µg/mL (≈ 104 µM)
CCCCCCCCCCCCCNCC(=O)N(CCC)CC(=O)N(CC(=O)N(CCCCN)CC(=O)N(CC(=O)N(CC(=O)N(CCCN)CC(N)=O)Cc1ccccc1)Cc1ccco1)C1CCCCC1 [Compound 911-M9] (H-[N(tridecyl)Gly][NPrGly][Gly(N-cHex)][Nlys][NFurfurylGly][Nphe][Gly(N(CH2)3NH2)]-NH2)	12.5 µg/mL (≈ 12.2 µM)	1.56 µg/mL (≈ 1.53 µM)	99.5 ± 22 µg/mL (≈ 97.4 µM)
CCCCCCCCCCCCCNCC(=O)N(CCC)CC(=O)N(CC(=O)N(CCCCN)CC(=O)N(CC(=O)N(CC(=O)N(CCCN)CC(N)=O)Cc1ccccc1)Cc1ccco1)[C@@H](C)C1CCCCC1 [Compound 911-M11] (H-[N(tridecyl)Gly][NPrGly][N(1S-cyclohexylethyl)Gly][Nlys][NFurfurylGly][Nphe][Gly(N(CH2)3NH2)]-NH2)	3.13 to 6.25 µg/mL	1.56 µg/mL (≈ 1.49 µM)	82.5 ± 11.5 µg/mL (≈ 78.6 µM)
CCCCCCCCCCCCCC(=O)NCC(=O)N(CCN)CC(=O)N(CC(=O)N(CCCCN)CC(=O)N(CC(=O)N(CC(=O)N(CCCN)CC(N)=O)Cc1ccccc1)Cc1ccco1)[C@@H](C)C1CCCCC1 [Compound 911-M12] (Myristoyl-G[Gly(N-2-aminoethyl)][N(1S-cyclohexylethyl)Gly][Nlys][NFurfurylGly][Nphe][Gly(N(CH2)3NH2)]-NH2)	6.25 µg/mL (≈ 5.8 µM)	3.13 µg/mL (≈ 2.9 µM)	145 ± 35 µg/mL (≈ 134 µM)
CCCCCCCCCCCCCNCC(=O)N(CCN)CC(=O)N(CC(=O)N(CCCCN)CC(=O)N(CC(=O)N(CC(=O)N(CCCN)CC(N)=O)Cc1ccccc1)Cc1ccco1)[C@@H](C)C1CCCCC1 [Compound 911-M13] (H-[N(tridecyl)Gly][Gly(N-2-aminoethyl)][N(1S-cyclohexylethyl)Gly][Nlys][NFurfurylGly][Nphe][Gly(N(CH2)3NH2)]-NH2)	6.25 µg/mL (≈ 5.95 µM)	3.13 µg/mL (≈ 2.98 µM)	140 ± 33 µg/mL (≈ 133 µM)

Reference: patent publication US20240391889A1, “ANTIMICROBIAL COMPOUNDS AND THE METHODS OF USE” (priority 2021, published 2024)
